According to EP0471345B1, “Determination of biogenous amines” (BOEHRINGER MANNHEIM GMBH, priority 1990, dated 1992):

What was measured:
Experiment in all cases: competitive ELISA: relative affinity and cross-reactivity of monoclonal antibodies against Histamin-ITCB
[1] = system: monoklonaler Antikörper 1.97.235 gegen Histamin-ITCB; settings: amount of Histamin-ITCB for 50 % signal drop (50 % IC) in ELISA; antibody 1.97.235
Description: (§1) Zur Ermittlung der Relativen Affinität werden Kompetitionskurven mit dem homologen Antigen ermittelt und ausgewertet.
(§2) Mikrotiterplatten werden mit 100 »l pro well einer Lösung aus 10 »g Thermo-SA-Streptavidin/ml (Herstellung nach EP-A 0269 092) in Puffer pH 9,6 eine Stunde bei Raumtemperatur beschichtet. Die Platten werden mit 0,9% Natriumchloridlösung gewaschen. […] Darauf werden 100 »l Probe in PBS eine Stunde bei Raumtemperatur inkubiert und erneut mit 0,9 % Natriumchloridlösung gewaschen. Es folgt eine weitere Inkubation (1 Stunde bei Raumtemperatur) mit 100 »l/well einer Lösung von 150 mU/ml eines Schaf-anti-Maus-IgG-Peroxidase-Konjugats (Boehringer Mannheim GmbH, Best.-Nr. 821489) in PBS/O,5 % RSA. Nach einem weiteren Waschschritt mit 0,9 % Natriumchloridlösung wird die Peroxidaseaktivität durch Zugabe von 100 »l/well einer ABTS®-Lösung (100 mg ABTS; 3,25 mmol/l Natriumperborat; 39,8 mmol/l Citronensäure; 60 mmol/l Natriumphosphat; pH 4,4-4,5) 30 min bei Raumtemperatur und anschließender Extinktionsmessung bei 405 nm bestimmt.
(§3) Die Kreuzreaktion wurde anschließend mit folgender Formel berechnet: [formula] C = Konzentration des jeweiligen Antigens, die zur Erreichung von 50 % des maximalen Signals erforderlich ist.

[2] = system: monoklonaler Antikörper 1.54.95 gegen Histamin-ITCB; settings: amount of Histamin-ITCB for 50 % signal drop (50 % IC) in ELISA; antibody 1.54.95
Description: as §1, §2, §3

[3] = system: monoklonaler Antikörper 1.68.168 gegen Histamin-ITCB; settings: amount of Histamin-ITCB for 50 % signal drop (50 % IC) in ELISA; antibody 1.68.168
Description: as §1, §2, §3

[4] = system: monoklonaler Antikörper 1.36.59 gegen Histamin-ITCB; settings: amount of Histamin-ITCB for 50 % signal drop (50 % IC) in ELISA; antibody 1.36.59
Description: as §1, §2, §3

[5] = system: monoklonaler Antikörper 1.25.53 gegen Histamin-ITCB; settings: amount of Histamin-ITCB for 50 % signal drop (50 % IC) in ELISA; antibody 1.25.53
Description: as §1, §2, §3

[6] = system: monoklonaler Antikörper 1.47.74 (ECACC 90071902) gegen Histamin-ITCB; settings: amount of Histamin-ITCB for 50 % signal drop (50 % IC) in ELISA; antibody 1.47.74
Description: as §1, §2, §3

[7] = system: monoklonaler Antikörper 1.83.201 gegen Histamin-ITCB; settings: amount of Histamin-ITCB for 50 % signal drop (50 % IC) in ELISA; antibody 1.83.201
Description: as §1, §2, §3

[8] = system: monoklonaler Antikörper 1.17.44 (ECACC 90071901) gegen Histamin-ITCB; settings: amount of Histamin-ITCB for 50 % signal drop (50 % IC) in ELISA; antibody 1.17.44
Description: as §1, §2, §3

Question: With `O=C(O)c1cccc(NC(=S)NCCc2c[nH]cn2)c1` [Histamin-ITCB, N-(3-Carboxyphenyl)-N'-[2-(4-imidazolyl)ethyl]thioharnstoff] as the compound, how does the “Relative Affinität zu Histamin-ITCB” value [1] read?
Answer: The value was 1,5 ng/ml.

Question: What about the “Relative Affinität zu Histamin-ITCB” value [2] of the same compound?
Answer: The value was 1,5 ng/ml.

Question: And the “Relative Affinität zu Histamin-ITCB” value [3]?
Answer: Its value is 1,4 ng/ml.

Question: What about the “Relative Affinität zu Histamin-ITCB” value [4] of the same compound?
Answer: Its value is 1 ng/mL.

Question: What about the “Relative Affinität zu Histamin-ITCB” value [5] of the same compound?
Answer: The value was 1 ng/mL.

Question: What about the “Relative Affinität zu Histamin-ITCB” value [6] of the same compound?
Answer: Its value is 0,8 ng/ml.

Question: What about the “Relative Affinität zu Histamin-ITCB” value [7] of the same compound?
Answer: Its value is 0,75 ng/ml.

Question: What about the “Relative Affinität zu Histamin-ITCB” value [8] of the same compound?
Answer: Its value is 0,5 ng/ml.
